Results: US5910499A, “Antiallergic agent having an anti-oxidant action” (LTT Institute Co., Ltd., priority 1997, dated 1999)

Experiments:
rat liver microsome = assay: ADP/Fe^3+ induced lipid peroxidation reaction using rat liver microsome (anti-oxidant action); format: biochemical; conditions: for inhibition action on lipid peroxidation compared with BHT: versus BHT, positive control (FIG. 1)
Procedure: Test Example 1 [Anti-oxidant-action (lipid peroxide production inhibiting action)]
Compounds II-VII represented by the following formulae [drawing 3] have shown concentration dependent inhibition action on ADP/Fe^3+ induced lipid peroxidation reaction using rat liver microsome.
Test method (ADP/Fe^3+ induced lipid peroxidation reaction)
The method of Kiso et al. was employed. That means, 100 μl of a rat liver microsome suspension (20 mg of protein/ml), 100 μl of a 2 mM NADPH, 100 μl of a 10 mM ADP, and 100 μl of a specimen solution whose concentration was controlled with a 10% N,N-dimethylformamide (DMF) aqueous solution were added to 500 μl of a trihydroxymethylaminomethane (Tris)-HCl buffer solution (167 mM KCl, 74.4 mM Tris, pH 7.4) and heated at 37° C. for 5 minutes. Then 100 μl of 100 μM FeCl3 was added thereto and heated at 37° C. for 20 minutes
To a control was added 100 μl of a 10% DMF aqueous solution instead of the specimen solution. To a blank, 100 μl of a 10% DMF aqueous solution was added instead of the specimen solution, and 300 μl of water was added instead of 100 μl of the NADPH, 100 μl of the FeCl3, and 100 μl of the ADP. The reaction was stopped by cooling with ice, and the amount of the lipid peroxide was calculated as an amount of malondialdehyde according to the method of Ohkawa et al.
That means, 200 μl of a 8.1% sodium dodecyl sulfate (SDS) aqueous solution, 1.5 ml of an acetic acid buffer solution (20% AcOH containing 0.27M HCl was controlled with 10M NaOH to have a pH of 3.5), and 1.5 ml of a 0.8% 2-thiobarbituric acid aqueous solution were added to 1 ml of the reaction mixture and heated in a boiling water bath for 20 minutes Following heating, the reaction was stopped with cooling with ice and 4 ml of n-BuOH-pyridine mixed solution (15:1) was added thereto and mixed vigorously. Then the mixture was subjected to centrifugation at 800×g for 10 minutes and the absorbancy of the supernatant liquid was measured at 532 nm.

guinea pig bowel = biological target: T1, guinea pig bowel (Cavia porcellus, UniProt P31389); assay: Antihistaminic action with guinea pig bowel by Magnus' method; conditions: guinea pig ileum, histamine dose reaction curve, 37° C.; read-out: pA2 (index of the antihistaminic action) (converted)
T1 construct: the ileum was excised to a length of about 2 cm; from tissue; host or cells: guinea pig ileum
Procedure: Test Example 3--Antihistaminic action
The antihistaminic action of the Compound V was tested with a guinea pig bowel by Magnus' method using diphenhydramine hydrochloride as a positive control.
A guinea pig which had been fasted overnight was struck to death and the ileum was excised to a length of about 2 cm and one end was suspended in an isotonic transducer and the other end was secured onto a fixed rod. The temperature of the temperature controlled bath was kept at 37° C. and the ileum was allowed to stand for about 30 minutes while a mixed gas comprising 95% of O2 and 5% of CO2 was introduced into 10 ml of Tyrode solution, and histamine of different concentrations was injected for training, then a dose reaction curve was obtained by administering histamine accumulatively in order of increasing concentration. Then after washing, a dose reaction curve in relation to the histamine was similarly obtained under administration of the specimen and pA2 was calculated.

[1] = system: rat cutaneous anaphylactic reaction (PCA reaction); assay: Antiallergic action in an orally administered rat, 48 hours homologous PCA reaction; format: in vivo; conditions: Wistar male rat, oral, 2 hours before antigen; versus tranilast (FIG. 2)
Procedure: Test Example 4--Antiallergic action in an orally administered rat (PCA method)
The antiallergic actions of Compound II-Compound VII were evaluated using rat cutaneous anaphylactic reaction (PCA reaction) employing tranilast, which is an oral antiallergic agent, as a positive control compound.
Test method (Antiallergic action by PCA reaction)
The test was carried out according to the method of Koda et al, {Int. Arch. Allergy Appl. Immunol. 87, 254(1988)}. The dorsum of a Wistar-strain male rat having a body weight of about 200 g was shaved and 0.1 ml of an antiserum showing 48 hours homologous PCA strength of 1:128-1:256 diluted with physiological saline was injected into the dorsum intracutaneously. […] After 30 minutes, the rat was brought to death by exsanguination and the pigment freckle generated on the back skin was cut out and the amount of the transuded pigment was determined. That means, the cut out skin was put in a test tube, 1 ml of 1N KOH was added and allowed to stand overnight at 37° C. to elute the pigment, and 9 ml of a mixture comprising acetone and 0.6N phosphoric acid (mixed at 13:5) was added thereto and shaken, and the insoluble substances were removed by filtration and the absorbency of the filtrate was measured at 620 nm and the amount of the pigment was determined. […]

5-lipoxygenase = biological target: T2, 5-lipoxygenase (Rattus norvegicus, UniProt P12527); assay: 5-lipoxygenase inhibiting action (leucotriene production inhibiting action), RBL-1 cell homogenate; format: biochemical; conditions: arachidonic acid, 37° C., 5-HETE by HPLC
T2 construct: subjected to supersonic treatment and the cells were disrupted; endogenous in cells; host or cells: RBL-1 cells (homogenate)
T2 sequence (P12527 1-673): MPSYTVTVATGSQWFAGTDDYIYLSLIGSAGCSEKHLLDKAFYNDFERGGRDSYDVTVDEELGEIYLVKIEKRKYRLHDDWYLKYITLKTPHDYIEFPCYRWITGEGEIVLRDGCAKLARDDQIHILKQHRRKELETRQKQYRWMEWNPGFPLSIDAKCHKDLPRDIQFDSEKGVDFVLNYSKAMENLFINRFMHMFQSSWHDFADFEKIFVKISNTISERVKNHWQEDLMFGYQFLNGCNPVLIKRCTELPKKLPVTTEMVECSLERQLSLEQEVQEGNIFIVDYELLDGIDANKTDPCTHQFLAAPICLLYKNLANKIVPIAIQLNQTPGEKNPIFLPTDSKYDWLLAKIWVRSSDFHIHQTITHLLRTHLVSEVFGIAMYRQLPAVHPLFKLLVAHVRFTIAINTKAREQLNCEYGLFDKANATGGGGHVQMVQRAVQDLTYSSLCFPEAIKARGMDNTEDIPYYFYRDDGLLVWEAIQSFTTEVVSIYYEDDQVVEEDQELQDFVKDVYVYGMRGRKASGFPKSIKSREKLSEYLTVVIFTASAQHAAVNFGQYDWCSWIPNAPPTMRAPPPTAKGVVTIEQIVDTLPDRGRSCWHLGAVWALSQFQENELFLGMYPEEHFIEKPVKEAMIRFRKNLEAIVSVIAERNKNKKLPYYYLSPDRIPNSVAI
Procedure: Test method (5-lipoxygenase inhibition action)
That means, a RBL-1 cell suspension which was adjusted with a 50 mM phosphate buffer such that the number of cells became 1×10^7 cells/ml, was subjected to supersonic treatment and the cells were disrupted To 500 μl of the cell homogenate solution was added 10 μl of a specimen solution whose concentration was adjusted to different concentrations using a 1% DMSO, 10 μl of 100 mM CaCl2 and 10 μl of a 10 mg/ml arachidonic acid solution in MeOH and heated to 37° C. for 3 minutes. To a control was added 10 μl of a 1% DMSO instead of the specimen. To a blank, 10 μl of a 1% DMSO was added instead of the specimen, and 500 μl of a 50 mM phosphate buffer was added instead of RBL-1 cell suspension. Then 500 μl of MeOH was added thereto and the mixture was cooled with ice to stop the reaction, followed by mixing and centrifugation at 2000×g for 15 minutes Then the amount of 5-HETE in 10 μl of the supernatant liquid was measured using HPLC under the following conditions.
mobile phase; acetonitrile: 0.1% acetic acid=85:15
detection wave length; 235 nm
The inhibition ratio to 5-lipoxygenase activity was calculated according to the following formula.

T1 sequence (P31389 whole entry): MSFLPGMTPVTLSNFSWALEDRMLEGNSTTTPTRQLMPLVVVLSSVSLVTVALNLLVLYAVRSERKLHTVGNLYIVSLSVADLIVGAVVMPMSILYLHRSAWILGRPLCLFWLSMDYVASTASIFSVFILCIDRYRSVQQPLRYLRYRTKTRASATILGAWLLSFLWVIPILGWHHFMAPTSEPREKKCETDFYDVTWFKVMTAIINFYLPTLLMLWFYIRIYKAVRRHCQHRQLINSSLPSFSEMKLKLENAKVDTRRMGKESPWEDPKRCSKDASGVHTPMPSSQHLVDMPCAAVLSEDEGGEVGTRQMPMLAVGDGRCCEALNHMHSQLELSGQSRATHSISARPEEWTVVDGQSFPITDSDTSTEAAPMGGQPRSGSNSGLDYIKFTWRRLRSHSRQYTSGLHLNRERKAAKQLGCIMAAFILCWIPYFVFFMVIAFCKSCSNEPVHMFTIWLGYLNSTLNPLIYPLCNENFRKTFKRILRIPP

Kb (guinea pig bowel) [µM]	IC50 (5-lipoxygenase) [µM]	SMILES	inhibition action on lipid peroxidation compared with BHT (rat liver microsome)	antiallergic activity compared with the positive control compound (tranilast) [1]	anti-oxidant action, ranking among the compounds of Test Example 1 (rat liver microsome; result in words)
		Cc1cc(OCCN2CCN(C(c3ccccc3)c3ccccc3)CC2)c(C)c(C)c1O [Compound II]	higher inhibition actions than BHT		
		Cc1cc(OCCCN2CCN(C(c3ccccc3)c3ccccc3)CC2)c(C)c(C)c1O [Compound III]	higher inhibition actions than BHT		
0.126	6.2	Cc1cc(OCCCCCCN2CCN(C(c3ccccc3)c3ccccc3)CC2)c(C)c(C)c1O [Compound V]	higher inhibition actions than BHT	higher activity than that of the positive control compound	highest anti-oxidant action
		Cc1cc(OCCCCN2CCN(C(c3ccccc3)c3ccccc3)CC2)c(C)c(C)c1O [Compound IV]	higher inhibition actions than BHT	higher activity than that of the positive control compound	
